Like-named read-outs stand apart in the source and are kept apart here.
Experiments:
HDAC7 = target: T1, HDAC7 (Homo sapiens, UniProt Q8WUI4); test: HDAC biochemical activity measurement (fluorescent substrate deacetylation);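 also: fluorogenic deacetylation assay using acetyl-lysine substrate at 20 µM, enzyme and compound incubated 30 min at 37 °C, then developer added, fluorescence read at 360/460 nm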; details: HDAC7; 37° C. 30 minutes
T1 sequence (Q8WUI4 1-952): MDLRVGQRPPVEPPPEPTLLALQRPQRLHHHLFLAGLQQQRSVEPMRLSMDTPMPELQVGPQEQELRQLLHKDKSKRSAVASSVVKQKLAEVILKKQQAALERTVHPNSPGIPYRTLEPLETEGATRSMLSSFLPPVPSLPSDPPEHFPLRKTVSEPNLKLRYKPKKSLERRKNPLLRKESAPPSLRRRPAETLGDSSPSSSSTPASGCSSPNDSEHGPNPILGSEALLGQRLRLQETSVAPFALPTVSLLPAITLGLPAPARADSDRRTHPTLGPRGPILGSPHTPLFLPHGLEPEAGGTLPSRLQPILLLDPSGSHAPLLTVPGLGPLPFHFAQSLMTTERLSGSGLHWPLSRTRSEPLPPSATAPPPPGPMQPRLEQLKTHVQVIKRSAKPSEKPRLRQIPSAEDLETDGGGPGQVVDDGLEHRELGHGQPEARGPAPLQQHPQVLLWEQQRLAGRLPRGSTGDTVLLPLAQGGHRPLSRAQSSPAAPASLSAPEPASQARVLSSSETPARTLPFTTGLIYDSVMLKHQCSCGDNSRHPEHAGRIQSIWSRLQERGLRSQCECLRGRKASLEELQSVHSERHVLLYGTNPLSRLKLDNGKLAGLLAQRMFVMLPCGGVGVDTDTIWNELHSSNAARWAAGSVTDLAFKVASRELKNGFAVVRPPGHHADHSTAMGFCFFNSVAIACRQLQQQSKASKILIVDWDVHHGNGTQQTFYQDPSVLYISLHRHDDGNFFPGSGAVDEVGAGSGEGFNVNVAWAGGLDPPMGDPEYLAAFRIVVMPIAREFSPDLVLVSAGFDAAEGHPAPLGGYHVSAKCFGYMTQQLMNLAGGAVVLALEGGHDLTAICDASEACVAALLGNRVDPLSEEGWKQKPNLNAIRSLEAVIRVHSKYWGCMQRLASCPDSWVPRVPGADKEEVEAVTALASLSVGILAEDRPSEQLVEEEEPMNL

[1] = system: A549 (human lung cancer cells); test: MTT cancer cell growth inhibition; type: cell-based; details: MTT, 72 hours incubation, read-out: GI50 A54
How it was run: (§1)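 MTT viability, 570 nm, GI50. Cells 1500/well; compound 72 h at final 10^−5–10^−10 M in triplicate.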

[2] = system: BGC-823 (human gastric cancer cells); test: MTT cancer cell growth inhibition; type: cell-based; details: MTT, 72 hours incubation, read-out: GI50 BG
How it was run: as §1

[3] = system: Bel-7402 (human hepatoma cells); test: MTT cancer cell growth inhibition; type: cell-based; details: MTT, 72 hours incubation, Bel-7402 cells, read-out: GI50 Bel-7402
How it was run: as §1

[4] = system: DU145 (human prostate cancer cells); test: MTT cancer cell growth inhibition; type: cell-based; details: MTT, 72 hours incubation, read-out: GI50 Du1
How it was run: as §1

[5] = system: H1975 (non-small cell lung adenocarcinoma); test: MTT cancer cell growth inhibition; type: cell-based; details: MTT, 72 hours incubation, H1975 cells, read-out: GI50 H1975
How it was run: as §1

[6] = system: HCC827 (human non-small cell lung cancer cells); test: MTT cancer cell growth inhibition; type: cell-based; details: MTT, 72 hours incubation, HCC827 cells, read-out: GI50 HCC827
How it was run: as §1

[7] = system: HT1080 (human fibrosarcoma cells); test: MTT cancer cell growth inhibition; type: cell-based; details: MTT, 72 hours incubation, read-out: GI50 HT1
How it was run: as §1

[8] = system: Hela (human cervical cancer cells); test: MTT cancer cell growth inhibition; type: cell-based; details: MTT, 72 hours incubation, read-out: GI50 Hela
How it was run: as §1

[9] = system: Huh-7 (human hepatoma cells); test: MTT cancer cell growth inhibition; type: cell-based; details: MTT, 72 hours incubation, Huh-7 cells, read-out: GI50 Huh-7
How it was run: as §1

[10] = system: K562 (human leukemia cells); test: MTT cancer cell growth inhibition; type: cell-based; details: MTT, 72 hours incubation, K562 cells, read-out: GI50 K562
How it was run: as §1

[11] = system: KBM-5 (human chronic myelogenous leukemia); test: MTT cancer cell growth inhibition; type: cell-based; details: MTT, 72 hours incubation, KBM-5 cells, read-out: GI50 KBM-5
How it was run: as §1

[12] = system: KBM5-T315I (human chronic myelogenous leukemia); test: MTT cancer cell growth inhibition; type: cell-based; details: MTT, 72 hours incubation, KBM5-T315I cells, read-out: GI50 KBM5-T315I
How it was run: as §1

[13] = system: MCF-7 (human breast cancer cells); test: MTT cancer cell growth inhibition; type: cell-based; details: 72 hours incubation, read-out: GI50 MCF
How it was run: as §1

[14] = system: MDA-MB-231 (breast cancer cells); test: MTT cancer cell growth inhibition; type: cell-based
How it was run: as §1

[15] = system: MOLT-4 (human acute lymphoblastic leukemia cells); test: MTT cancer cell growth inhibition; type: cell-based; details: MTT, 72 hours incubation, read-out: GI50 Mol
How it was run: as §1

[16] = system: N-87 (human gastric cancer cells); test: MTT cancer cell growth inhibition; type: cell-based; details: MTT, 72 hours incubation, N-87 cells, read-out: GI50 N-87
How it was run: as §1

[17] = system: PANC-1 (Pac-1, human pancreatic cancer cells); test: MTT cancer cell growth inhibition; type: cell-based; details: MTT, 72 hours incubation, read-out: GI50 PAN
How it was run: as §1

[18] = system: SGC-7901 (human gastric cancer cells); test: MTT cancer cell growth inhibition; type: cell-based; details: MTT, 72 hours incubation, SGC-7901 cells, read-out: GI50 SGC-7901
How it was run: as §1

[19] = system: U937 (human leukemia cells); test: MTT cancer cell growth inhibition; type: cell-based; details: MTT, 72 hours incubation, read-out: GI50 U93
How it was run: as §1

[20] = system: lncap (prostate cancer cells); test: MTT cancer cell growth inhibition; type: cell-based; details: MTT, 72 hours incubation, read-out: GI50 lnca
How it was run: as §1

[21] = read-out: GI50 MDA-MB-231, MTT, 72 hours incubation, MDA-MB-231 cells
[22] = Homo sapiens, A549, 72 h, A549 cells
[23] = Homo sapiens, BGC-823, 72 h, BGC-823 cells
[24] = Homo sapiens, DU-145, 72 h, DU145 cells
[25] = Homo sapiens, MCF7, 72 h, MCF-7 cells
[26] = Homo sapiens, MDA-MB-231, 72 h, read-out: GI50 MDA-MB-231, MTT, 72 hours incubation, MDA-MB-231 cells
[27] = Homo sapiens, U-937, 72 h, U937 cells

SMILES	IC50 HDAC7 (HDAC7)	GI50 [3]	GI50 [5]	GI50 [6]	GI50 ([7]; HT1080 cells)	GI50 ([8]; Hela cells)	GI50 [11]	GI50 [14, 21]	GI50 ([15]; MOLT-4 cells)	GI50 ([17]; PANC-1 cells)	GI50 ([3]; Homo sapiens, Bel-7402, 72 h)	GI50 ([5]; Homo sapiens, NCI-H1975, 72 h)	GI50 ([6]; Homo sapiens, HCC827, 72 h)	GI50 ([9]; Homo sapiens, Huh-7, 72 h)	GI50 ([10]; Homo sapiens, K562, 72 h)	GI50 ([11]; Homo sapiens, KBM5, 72 h)	GI50 ([12]; Homo sapiens, 72 h)	GI50 [14, 26]	GI50 ([16]; Homo sapiens, 72 h)	GI50 ([18]; Homo sapiens, SGC-7901, 72 h)	further results
C/C=C1\NC(=O)c2ccc(SC)c(n2)CNC(=O)C[C@@H](/C=C/CCSC(C)=O)OC(=O)[C@H](C(C)C)NC1=O [Compound 209]	no activity	13 nM	17 nM	85 nM	30 nM	90 nM	46 nM	35 nM	70 nM	20 nM											GI50 ([1]; A549 cells): 20 nM; GI50 ([2]; BGC-823 cells): 40 nM; GI50 ([4]; DU145 cells): 70 nM; GI50 [9]: 23 nM; GI50 [10]: 39 nM; GI50 [12]: 31 nM; GI50 ([13]; MCF-7 cells): 20 nM; GI50 [16]: 51 nM; GI50 [18]: 41 nM; GI50 ([19]; U937 cells): 30 nM; GI50 ([20]; lncap cells): 20 nM
C/C=C1\NC(=O)c2cc(SC)cc(n2)CNC(=O)C[C@@H](/C=C/CCSC(C)=O)OC(=O)[C@H](Cc2ccc(O)cc2)NC1=O [Compound 202]	no activity										76 nM	58 nM	32 nM	31 nM	15 nM	38 nM	26 nM	41 nM	29 nM	31 nM	GI50 [1, 22]: 50 nM; GI50 [2, 23]: 40 nM; GI50 [4, 24]: 70 nM; GI50 ([7]; Homo sapiens, HT-1080, 72 h, HT1080 cells): 30 nM; GI50 ([8]; Homo sapiens, HeLa, 72 h, Hela cells): 20 nM; GI50 [13, 25]: 30 nM; GI50 ([15]; Homo sapiens, MOLT-4, 72 h, MOLT-4 cells): 50 nM; GI50 ([17]; Homo sapiens, PANC-1, 72 h, PANC-1 cells): 30 nM; GI50 [19, 27]: 20 nM; GI50 ([20]; Homo sapiens, LNCaP, 72 h, lncap cells): 20 nM
C=C1NC(=O)c2cccc(n2)CNC(=O)C[C@@H](/C=C/CCS)OC(=O)[C@H](C)NC1=O [Compound 139]	no activity										43 nM	15 nM	34 nM	51 nM	47 nM	69 nM	21 nM	67 nM	25 nM	57 nM	GI50 ([1]; Homo sapiens, A549, 72 h): 50 nM; GI50 ([2]; Homo sapiens, BGC-823, 72 h): 60 nM; GI50 ([4]; Homo sapiens, DU-145, 72 h): 80 nM; GI50 ([7]; Homo sapiens, HT-1080, 72 h): 70 nM; GI50 ([8]; Homo sapiens, HeLa, 72 h): 70 nM; GI50 ([13]; Homo sapiens, MCF7, 72 h): 10 nM; GI50 ([15]; Homo sapiens, MOLT-4, 72 h): 90 nM; GI50 ([17]; Homo sapiens, PANC-1, 72 h): 70 nM; GI50 ([19]; Homo sapiens, U-937, 72 h): 50 nM; GI50 ([20]; Homo sapiens, LNCaP, 72 h): 190 nM
C=C1NC(=O)c2cc(F)cc(n2)CNC(=O)C[C@@H](/C=C/CCSC(C)=O)OC(=O)[C@H](C)NC1=O [Compound 91]	no activity										51 nM	38 nM	51 nM	46 nM	26 nM	91 nM	31 nM	46 nM	62 nM	48 nM	GI50 ([1]; Homo sapiens, A549, 72 h): 40 nM; GI50 ([2]; Homo sapiens, BGC-823, 72 h): 60 nM; GI50 ([4]; Homo sapiens, DU-145, 72 h): 20 nM; GI50 ([7]; Homo sapiens, HT-1080, 72 h): 50 nM; GI50 ([8]; Homo sapiens, HeLa, 72 h): 90 nM; GI50 ([13]; Homo sapiens, MCF7, 72 h): 30 nM; GI50 ([15]; Homo sapiens, MOLT-4, 72 h): 40 nM; GI50 ([17]; Homo sapiens, PANC-1, 72 h): 50 nM; GI50 ([19]; Homo sapiens, U-937, 72 h): 30 nM; GI50 ([20]; Homo sapiens, LNCaP, 72 h): 40 nM
C/C=C1\NC(=O)c2ccc(SC)c(n2)CNC(=O)C[C@@H](/C=C/CCSC(C)=O)OC(=O)[C@H](C(C)C)NC1=O [Compound 167]	no activity	75 nM	43 nM	28 nM	100 nM	40 nM	14 nM	91 nM	20 nM	70 nM				29 nM	45 nM		33 nM		42 nM		GI50 [1, 22]: 30 nM; GI50 [2, 23]: 40 nM; GI50 [4, 24]: 40 nM; GI50 [13, 25]: 30 nM; GI50 [18]: 97 nM; GI50 [19, 27]: 20 nM; GI50 ([20]; lncap cells): 60 nM
